Measurements as given in PubChem BioAssay (NCI).
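Dose response: 5 concentrations. Exposure: 48 h. Format: 96-well plates. Endpoint: linear interpolation; highest concentration if not reached. Here, GI50 denotes the concentration required for 50% inhibition of growth. TGI: total growth inhibition.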

What was measured:
Test in all cases: NCI-60 cell line screen, 48 h; in the data active = GI50 below about 0.43 µM; inactive = the rest
SK-MEL-28 melanoma = system: SK-MEL-28 melanoma
SR leukemia = system: SR leukemia
OVCAR-8 ovarian = system: OVCAR-8 ovarian
KM12 colon = system: KM12 colon
HCT-15 colon = system: HCT-15 colon
MOLT-4 leukemia = system: MOLT-4 leukemia
SN12C renal = system: SN12C renal
HT29 colon = system: HT29 colon
IGROV1 ovarian = system: IGROV1 ovarian
HOP-62 NSCLC = system: HOP-62 NSCLC
M14 melanoma = system: M14 melanoma
SK-MEL-5 melanoma = system: SK-MEL-5 melanoma
RPMI-8226 leukemia = system: RPMI-8226 leukemia
SW-620 colon = system: SW-620 colon
MALME-3M melanoma = system: MALME-3M melanoma
A549 NSCLC = system: A549 NSCLC
MCF7 breast = system: MCF7 breast
T-47D breast = system: T-47D breast
PC-3 prostate = system: PC-3 prostate
HL-60(TB) leukemia = system: HL-60(TB) leukemia
MDA-N = system: MDA-N
LOX IMVI melanoma = system: LOX IMVI melanoma
MDA-MB-231 breast = system: MDA-MB-231 breast
SF-268 CNS = system: SF-268 CNS
DU-145 prostate = system: DU-145 prostate
NCI-H23 lung = system: NCI-H23 lung
TK-10 renal = system: TK-10 renal
K-562 leukemia = system: K-562 leukemia
SK-OV-3 ovarian = system: SK-OV-3 ovarian
HCC-2998 colon = system: HCC-2998 colon
UACC-257 melanoma = system: UACC-257 melanoma
SF-295 CNS = system: SF-295 CNS
CAKI-1 renal = system: CAKI-1 renal
786-0 renal = system: 786-0 renal
COLO 205 colon = system: COLO 205 colon
SNB-75 CNS = system: SNB-75 CNS
RXF 393 renal = system: RXF 393 renal
CCRF-CEM leukemia = system: CCRF-CEM leukemia
EKVX NSCLC = system: EKVX NSCLC
UACC-62 melanoma = system: UACC-62 melanoma
ACHN renal = system: ACHN renal
U251 CNS = system: U251 CNS
NCI/ADR-RES ovarian = system: NCI/ADR-RES ovarian
UO-31 renal = system: UO-31 renal
NCI-H460 lung = system: NCI-H460 lung
OVCAR-4 ovarian = system: OVCAR-4 ovarian
HCT-116 colon = system: HCT-116 colon
SF-539 CNS = system: SF-539 CNS
NCI-H226 lung = system: NCI-H226 lung
HOP-92 NSCLC = system: HOP-92 NSCLC
SK-MEL-2 melanoma = system: SK-MEL-2 melanoma
SNB-19 CNS = system: SNB-19 CNS
OVCAR-3 ovarian = system: OVCAR-3 ovarian
OVCAR-5 ovarian = system: OVCAR-5 ovarian
NCI-H522 lung = system: NCI-H522 lung
A498 renal = system: A498 renal
MDA-MB-435 = system: MDA-MB-435
BT-549 breast = system: BT-549 breast
HS 578T breast = system: HS 578T breast

C=CCc1c(O)c2nsnc2c2nsnc12
> 10 µM: TGI (SK-MEL-28 melanoma) | TGI (SR leukemia) | TGI (OVCAR-8 ovarian) | TGI (KM12 colon) | TGI (HCT-15 colon) | TGI (MOLT-4 leukemia) | TGI (SN12C renal) | TGI (HT29 colon) | TGI (IGROV1 ovarian) | TGI (HOP-62 NSCLC) | TGI (M14 melanoma) | TGI (SK-MEL-5 melanoma) | TGI (RPMI-8226 leukemia) | TGI (SW-620 colon) | TGI (MALME-3M melanoma) | TGI (A549 NSCLC) | TGI (MCF7 breast) | TGI (T-47D breast) | TGI (PC-3 prostate) | TGI (HL-60(TB) leukemia) | TGI (MDA-N) | TGI (LOX IMVI melanoma) | TGI (MDA-MB-231 breast) | TGI (SF-268 CNS) | TGI (DU-145 prostate) | TGI (NCI-H23 lung) | TGI (TK-10 renal) | TGI (K-562 leukemia) | TGI (SK-OV-3 ovarian) | TGI (HCC-2998 colon) | TGI (UACC-257 melanoma) | TGI (SF-295 CNS) | TGI (CAKI-1 renal) | TGI (786-0 renal) | TGI (COLO 205 colon) | TGI (SNB-75 CNS) | TGI (RXF 393 renal) | TGI (CCRF-CEM leukemia) | TGI (EKVX NSCLC) | TGI (UACC-62 melanoma)

CC(=O)OCC1OC(n2c3c(c(-c4ccc(Cl)cc4)c(C#N)c2=S)CCCC3)C(OC(C)=O)C(OC(C)=O)C1OC(C)=O (centres undefined)
40.4 µM: TGI (HOP-92 NSCLC)
58.6 µM: TGI (SK-MEL-5 melanoma)
> 100 µM: TGI (ACHN renal) | TGI (SR leukemia) | TGI (OVCAR-8 ovarian) | TGI (KM12 colon) | TGI (HCT-15 colon) | TGI (MOLT-4 leukemia) | TGI (U251 CNS) | TGI (SN12C renal) | TGI (HT29 colon) | TGI (IGROV1 ovarian) | TGI (NCI/ADR-RES ovarian) | TGI (UO-31 renal) | TGI (HOP-62 NSCLC) | TGI (M14 melanoma) | TGI (NCI-H460 lung) | TGI (OVCAR-4 ovarian) | TGI (HCT-116 colon) | TGI (MALME-3M melanoma) | TGI (A549 NSCLC) | TGI (SF-539 CNS) | TGI (MCF7 breast) | TGI (T-47D breast) | TGI (NCI-H226 lung) | TGI (HL-60(TB) leukemia) | TGI (MDA-N) | TGI (LOX IMVI melanoma) | TGI (MDA-MB-231 breast) | TGI (SF-268 CNS) | TGI (DU-145 prostate) | TGI (NCI-H23 lung) | TGI (TK-10 renal) | TGI (K-562 leukemia) | TGI (SK-OV-3 ovarian) | TGI (HCC-2998 colon) | TGI (UACC-257 melanoma) | TGI (SNB-19 CNS) | TGI (SF-295 CNS) | TGI (786-0 renal) | TGI (COLO 205 colon) | TGI (OVCAR-3 ovarian) | TGI (OVCAR-5 ovarian) | TGI (NCI-H522 lung) | TGI (CCRF-CEM leukemia) | TGI (MDA-MB-435)
75.1 µM: TGI (UACC-62 melanoma)
63.3 µM: TGI (SK-MEL-2 melanoma)
79.6 µM: TGI (SNB-75 CNS)
84.4 µM: TGI (RXF 393 renal)
79.3 µM: TGI (A498 renal)
94.6 µM: TGI (SK-MEL-28 melanoma)
69.1 µM: TGI (PC-3 prostate)

Cc1cc(Nc2nc(N[C@@H](C)c3ncc(F)cn3)ncc2Cl)n[nH]1
19.9 µM: TGI (RXF 393 renal)
92.1 µM: TGI (SK-MEL-2 melanoma)
> 82.4 µM: TGI (SF-268 CNS)
54.8 µM: TGI (NCI-H226 lung)
36.4 µM: TGI (SNB-75 CNS)
> 71.8 µM: TGI (HS 578T breast)
> 64.1 µM: TGI (KM12 colon)
88 µM: TGI (UACC-62 melanoma)
42.4 µM: TGI (HOP-92 NSCLC)
inactive: GI50 (ACHN renal) 20.4 µM | GI50 (SK-MEL-28 melanoma) 38.1 µM | GI50 (SR leukemia) 4.15 µM | GI50 (OVCAR-8 ovarian) 30.5 µM | GI50 (HCT-15 colon) 24.9 µM | GI50 (MOLT-4 leukemia) 60.7 µM | GI50 (U251 CNS) 24.5 µM | GI50 (SN12C renal) 20.4 µM | GI50 (HT29 colon) 27.8 µM | GI50 (IGROV1 ovarian) 26.1 µM | GI50 (NCI/ADR-RES ovarian) 32 µM | GI50 (UO-31 renal) 24.6 µM | GI50 (HOP-62 NSCLC) 20 µM | GI50 (M14 melanoma) 20.7 µM | GI50 (NCI-H460 lung) 22.2 µM | GI50 (SK-MEL-5 melanoma) 26 µM | GI50 (OVCAR-4 ovarian) 23.2 µM | GI50 (BT-549 breast) 9.81 µM | GI50 (RPMI-8226 leukemia) > 62 µM | GI50 (SW-620 colon) 22.6 µM | GI50 (HCT-116 colon) 13.3 µM | GI50 (MALME-3M melanoma) 47.1 µM | GI50 (A549 NSCLC) 29.5 µM | GI50 (SF-539 CNS) 14.9 µM | GI50 (MCF7 breast) 8.71 µM | GI50 (T-47D breast) 22.8 µM | GI50 (PC-3 prostate) 43.7 µM | GI50 (NCI-H226 lung) 1.14 µM | GI50 (HL-60(TB) leukemia) 29.9 µM | GI50 (HOP-92 NSCLC) 10.1 µM | GI50 (LOX IMVI melanoma) 13.8 µM | GI50 (MDA-MB-231 breast) 30.6 µM | GI50 (SF-268 CNS) 18.2 µM | GI50 (DU-145 prostate) 40.8 µM | GI50 (NCI-H23 lung) 23.1 µM | GI50 (TK-10 renal) 30 µM | GI50 (K-562 leukemia) 32.2 µM | GI50 (SK-MEL-2 melanoma) 28.7 µM | GI50 (HS 578T breast) 15.9 µM | GI50 (SK-OV-3 ovarian) 22.6 µM | GI50 (HCC-2998 colon) 38.7 µM | GI50 (UACC-257 melanoma) 33.2 µM | GI50 (SNB-19 CNS) 51.7 µM | GI50 (SF-295 CNS) 35.6 µM | GI50 (CAKI-1 renal) 17.5 µM | GI50 (786-0 renal) 23.6 µM | GI50 (COLO 205 colon) 17.8 µM | GI50 (SNB-75 CNS) 8.85 µM | GI50 (OVCAR-3 ovarian) 59.1 µM | GI50 (RXF 393 renal) 5.07 µM | GI50 (OVCAR-5 ovarian) 38.4 µM | GI50 (NCI-H522 lung) 21.1 µM | GI50 (CCRF-CEM leukemia) 55.7 µM | GI50 (EKVX NSCLC) 56.8 µM | GI50 (A498 renal) 1.85 µM | GI50 (UACC-62 melanoma) 11.7 µM | GI50 (MDA-MB-435) 28.1 µM
active: GI50 (KM12 colon) 0.369 µM
> 100 µM: TGI (ACHN renal) | TGI (SK-MEL-28 melanoma) | TGI (SR leukemia) | TGI (OVCAR-8 ovarian) | TGI (HCT-15 colon) | TGI (MOLT-4 leukemia) | TGI (U251 CNS) | TGI (SN12C renal) | TGI (HT29 colon) | TGI (IGROV1 ovarian) | TGI (NCI/ADR-RES ovarian) | TGI (UO-31 renal) | TGI (HOP-62 NSCLC) | TGI (M14 melanoma) | TGI (NCI-H460 lung) | TGI (SK-MEL-5 melanoma) | TGI (OVCAR-4 ovarian) | TGI (BT-549 breast) | TGI (RPMI-8226 leukemia) | TGI (SW-620 colon) | TGI (HCT-116 colon) | TGI (MALME-3M melanoma) | TGI (A549 NSCLC) | TGI (MCF7 breast) | TGI (T-47D breast) | TGI (PC-3 prostate) | TGI (HL-60(TB) leukemia) | TGI (LOX IMVI melanoma) | TGI (MDA-MB-231 breast) | TGI (DU-145 prostate) | TGI (NCI-H23 lung) | TGI (TK-10 renal) | TGI (K-562 leukemia) | TGI (SK-OV-3 ovarian) | TGI (HCC-2998 colon) | TGI (UACC-257 melanoma) | TGI (SNB-19 CNS) | TGI (SF-295 CNS) | TGI (CAKI-1 renal) | TGI (786-0 renal) | TGI (OVCAR-3 ovarian) | TGI (OVCAR-5 ovarian) | TGI (NCI-H522 lung) | TGI (CCRF-CEM leukemia) | TGI (EKVX NSCLC) | TGI (MDA-MB-435)
13.1 µM: TGI (A498 renal)
48.9 µM: TGI (COLO 205 colon)
58 µM: TGI (SF-539 CNS)
